Measurements as given in US20240270762A1, “PENICILLIN-BINDING PROTEIN INHIBITORS” (priority 2021, published 2024).
≈ marks a conversion by molar mass, not a printed value.

Assays:
N. gonorrhoeae WHO K = assay: Liquid broth MIC in Fastidious broth; conditions: Neisseria gonorrhoeae, read-out: Minimum Inhibitory Concentration (MIC), N. gonorrhoeae WHO K
N. gonorrhoeae FA1090 = assay: Liquid broth MIC in Fastidious broth; conditions: Neisseria gonorrhoeae, FA1090, read-out: Minimum Inhibitory Concentration (MIC), N. gonorrhoeae FA 1090
A. baumannii ATCC 19606 = assay: microbe, parasite or virus in culture; type: cell-based; conditions: Acinetobacter baumannii, ATCC19606, read-out: MIC, A. baumannii ATCC 19606
[1] = target: T1, PBP2 from Neisseria gonorrhoeae (FA19) (Neisseria gonorrhoeae, UniProt P08149); assay: Bocillin-FL fluorescence polarization competition binding, N. gonorrhoeae PBP2; conditions: fluorescence polarization competition binding assay using Bocillin-FL, read-out: N. gonorrhoeae PBP2 Potency
T1 construct: made in house
Excerpt: To determine the ability of boronic acid-based test PBP inhibitors to bind Penicillin Binding Proteins (PBPs), Bocillin-FL (fluorescently-labeled penicillin V; ThermoFisher Scientific) was used in a fluorescence polarization (FP) competition binding assay to assess inhibitor binding to PBP3 from Escherichia coli (K-12), PBP3 from Pseudomonas aeruginosa (PAO1), PBP1a and PBP3 from Acinetobacter baumannii (ATCC 19606), and PBP2 from Neisseria gonorrhoeae (FA19). PBPs were cloned and purified as described previously (E. coli PBP3, King, D. T, et al., ACS Infectious Diseases 2015, 1, 175-184; P. aeruginosa PBP3, Han et. al., PNAS 2010, 107 (51), 22002-22007; A. baumannii PBPs, Penwell et. al., Antimicrob. Agents Chemother. 2015, 59 (3), 1680-1689; N. gonorrhoeae PBP2, Singh et. al., J. Biol. Chem. 2019, 294 (38), 14020-14032). To establish assay conditions for competition binding, enzyme titration/saturation binding experiments were initially performed. Bocillin-FL was prepared at 0.2 μM in a buffer comprised of 50 mM Hepes (pH 8.0), 300 mM NaCl and 10% (v/v) glycerol for reactions with E. coli, P. aeruginosa and N. gonorrhoeae PBPs, and 25 mM Tris (pH 8.0), 200 mM NaCl, 10% (v/v) glycerol and 0.005% (v/v) Tween 20 for reactions with A. baumannii PBPs. Saturation binding was performed by mixing 40 μl of PBP solutions ranging in concentrations from 0-24 μM with 40 μl of the 0.2 μM Bocillin-FL solution, in individual wells of a black 384-well microplate. FP was measured immediately upon mixing (Excitation, 490 nm; Emission, 520 nm; g-factor, 0.96), using a Cytation3 (BioTek) microplate reader and measured continuously for up to 120 minutes. […] The competition binding assay (80 μl final volume) was validated using beta-lactams and PBPs at final concentrations of: 1.5 μM for E. coli PBP3; 0.75 μM for P. aeruginosa PBP3; 1 μM for A. baumannii PBP1a; 0.2 μM for A. baumannii PBP3; and 0.25 μM for N. gonorrhoeae PBP2. Bocillin-FL was at 0.1 μM (0.05 μM with A. baumannii PBP1a) and beta-lactam concentrations ranged from 0-1,000 μM. E. coli PBP3 was incubated with increasing concentrations of ampicillin in a black 384-well microplate (Corning) for 30 minutes. P. aeruginosa PBP3 was incubated for 15 minutes with aztreonam, whereas A. baumannii PBP1a and PBP3 were incubated for 15 minutes with meropenem, and then Bocillin-FL was added followed immediately by the FP measurement for up to 60 minutes. […] The beta-lactam potency was reported as the concentration of beta-lactam required to reduce the amount of PBP bound-Bocillin-FL by 50% (EC50). […] Binding assays for boronic acid PBP inhibitors were performed in an identical fashion for the respective PBPs.

N. gonorrhoeae CDC-0197 = assay: Liquid broth MIC in Fastidious broth; conditions: Neisseria gonorrhoeae, CDC0197, read-out: Minimum Inhibitory Concentration (MIC), N. gonorrhoeae CDC-0197
P. aeruginosa ATCC 27853 = assay: microbe, parasite or virus in culture; type: cell-based; conditions: Pseudomonas aeruginosa, ATCC27853, read-out: MIC P. aeruginosa ATCC 27853
N. gonorrhoeae WHO Q = assay: Liquid broth MIC in Fastidious broth; conditions: Neisseria gonorrhoeae, read-out: Minimum Inhibitory Concentration (MIC), N. gonorrhoeae WHO Q
N. gonorrhoeae WHO Z = assay: Liquid broth MIC in Fastidious broth; conditions: Neisseria gonorrhoeae, read-out: Minimum Inhibitory Concentration (MIC), N. gonorrhoeae WHO Z

T1 sequence (P08149 whole entry): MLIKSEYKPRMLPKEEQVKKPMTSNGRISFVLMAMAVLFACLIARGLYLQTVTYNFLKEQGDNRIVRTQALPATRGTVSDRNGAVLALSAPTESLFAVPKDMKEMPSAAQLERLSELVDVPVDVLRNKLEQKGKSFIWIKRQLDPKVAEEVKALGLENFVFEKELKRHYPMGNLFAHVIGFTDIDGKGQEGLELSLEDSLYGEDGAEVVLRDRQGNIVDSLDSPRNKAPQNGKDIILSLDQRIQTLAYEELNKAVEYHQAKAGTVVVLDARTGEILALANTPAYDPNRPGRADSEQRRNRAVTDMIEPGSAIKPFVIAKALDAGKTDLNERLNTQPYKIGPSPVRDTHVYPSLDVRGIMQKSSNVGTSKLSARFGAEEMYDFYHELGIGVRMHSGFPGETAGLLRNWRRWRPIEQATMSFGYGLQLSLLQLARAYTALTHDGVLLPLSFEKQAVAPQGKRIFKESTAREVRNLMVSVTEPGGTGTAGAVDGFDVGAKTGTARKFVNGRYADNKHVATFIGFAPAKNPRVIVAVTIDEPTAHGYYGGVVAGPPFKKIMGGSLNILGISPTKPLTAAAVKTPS

| SMILES | MIC (N. gonorrhoeae WHO K) [µg/mL] | MIC (N. gonorrhoeae FA1090) [µg/mL] | MIC (A. baumannii ATCC 19606) [µg/mL] | EC50 [1] [µM] | MIC (N. gonorrhoeae CDC-0197) [µg/mL] | MIC (P. aeruginosa ATCC 27853) [µg/mL] | MIC (N. gonorrhoeae WHO Q) [µg/mL] | MIC (N. gonorrhoeae WHO Z) [µg/mL] |
| --- | --- | --- | --- | --- | --- | --- | --- | --- |
| CCN1CCN(C(=O)N[C@@H](C(=O)N[C@H]2Cc3ccc(F)c(C(=O)O)c3OB2O)c2ccc(P(=O)(O)O)cc2)C(=O)C1=O (single isomer, unassigned) [Example 10] | < 1 | < 1 | 32 to 64 (≈ 52.8 to 106 µM) | < 10 | < 1 | 32 to 64 (≈ 52.8 to 106 µM) | < 1 | < 1 |
| CCN1CCN(C(=O)NC(C(=O)N[C@H]2Cc3cccc(C(=O)O)c3OB2O)c2ccc(S(=O)(=O)O)cc2)C(=O)C1=O (stereo partly drawn) [Example 189, (3R)-3-(2-(4-ethyl-2,3-dioxopiperazine-1-carboxamido)-2-(4-sulfophenyl)acetamido)-2-hydroxy-3,4-dihydro-2H-benzo[e][1,2]oxaborinine-8-carboxylic acid] | 1 to 2 (≈ 1.7 to 3.4 µM) | < 1 | > 128 | < 10 | 1 to 2 (≈ 1.7 to 3.4 µM) | > 128 | 1 to 2 (≈ 1.7 to 3.4 µM) | 1 to 2 (≈ 1.7 to 3.4 µM) |
| CC(=O)N1CCC[C@@H]1C(=O)N[C@H](C(=O)N[C@H]1Cc2cccc(C(=O)O)c2OB1O)c1ccc(P(=O)(O)O)cc1 [Example 33, (3R)-3-(2-((R)-1-acetylpyrrolidine-2-carboxamido)-2-(4-phosphonophenyl)acetamido)-2-hydroxy-3,4-dihydro-2H-benzo[e][1,2]oxaborinine-8-carboxylic acid] | 16 to 32 (≈ 28.6 to 57.2 µM) | 4 to 8 (≈ 7.15 to 14.3 µM) | > 128 | < 10 | 16 to 32 (≈ 28.6 to 57.2 µM) | > 128 | 16 to 32 (≈ 28.6 to 57.2 µM) | 16 to 32 (≈ 28.6 to 57.2 µM) |
| CCN1CCN(C(=O)NC(C(=O)N[C@H]2Cc3cccc(C(=O)O)c3OB2O)c2c(F)cc(P(=O)(O)O)cc2F)C(=O)C1=O (stereo partly drawn) [Example 25, (3R)-3-(2-(2,6-difluoro-4-phosphonophenyl)-2-(4-ethyl-2,3-dioxopiperazine-1-carboxamido)acetamido)-2-hydroxy-3,4-dihydro-2H-benzo[e][1,2]oxaborinine-8-carboxylic acid] | 1 to 2 (≈ 1.6 to 3.2 µM) | < 1 | > 128 | < 10 | < 1 | > 128 | 1 to 2 (≈ 1.6 to 3.2 µM) | < 1 |
| O=C(O)c1cccc2c1OB(O)[C@@H](NC(=O)C(NC(=O)N1CCN(Cc3ccc(O)c(O)c3Cl)C(=O)C1=O)c1ccc(P(=O)(O)O)cc1)C2 (stereo partly drawn) [Example 24, (3R)-3-(2-(4-(2-chloro-3,4-dihydroxybenzyl)-2,3-dioxopiperazine-1-carboxamido)-2-(4-phosphonophenyl)acetamido)-2-hydroxy-3,4-dihydro-2H-benzo[e][1,2]oxaborinine-8-carboxylic acid] | 4 to 8 (≈ 5.58 to 11.2 µM) | < 1 |  | < 10 | 1 to 2 (≈ 1.4 to 2.79 µM) |  | 1 to 2 (≈ 1.4 to 2.79 µM) | 1 to 2 (≈ 1.4 to 2.79 µM) |
| O=C(O)c1c(F)ccc2c1OB(O)[C@@H](NC(=O)C(NC(=O)N1CCN(Cc3ccc(O)c(O)c3Cl)C1=O)c1ccc(P(=O)(O)O)cc1)C2 (stereo partly drawn) [Example 46, (3R)-3-(2-(3-(2-chloro-3,4-dihydroxybenzyl)-2-oxoimidazolidine-1-carboxamido)-2-(4-phosphonophenyl)acetamido)-7-fluoro-2-hydroxy-3,4-dihydro-2H-benzo[e][1,2]oxaborinine-8-carboxylic acid] | 1 to 2 (≈ 1.41 to 2.83 µM) | < 1 |  | < 10 | < 1 |  | < 1 | < 1 |
| O=C(O)c1c(F)ccc2c1OB(O)[C@@H](NC(=O)C(NC(=O)N1CCN(Cc3ccc(O)c(O)c3Cl)C(=O)C1=O)c1ccc(P(=O)(O)O)c(F)c1)C2 (stereo partly drawn) [Example 23, (3R)-3-(2-(4-(2-chloro-3,4-dihydroxybenzyl)-2,3-dioxopiperazine-1-carboxamido)-2-(3-fluoro-4-phosphonophenyl)acetamido)-7-fluoro-2-hydroxy-3,4-dihydro-2H-benzo[e][1,2]oxaborinine-8-carboxylic acid] | < 1 | < 1 |  | < 10 | < 1 |  | < 1 | < 1 |
| O=C(O)c1c(F)ccc2c1OB(O)[C@@H](NC(=O)C(NC(=O)N1CCN(Cc3cc(F)c(O)c(O)c3Cl)C(=O)C1=O)c1ccc(P(=O)(O)O)cc1)C2 (stereo partly drawn) [Example 45, (3R)-3-(2-(4-(2-chloro-5-fluoro-3,4-dihydroxybenzyl)-2,3-dioxopiperazine-1-carboxamido)-2-(4-phosphonophenyl)acetamido)-7-fluoro-2-hydroxy-3,4-dihydro-2H-benzo[e][1,2]oxaborinine-8-carboxylic acid] | 1 to 2 (≈ 1.33 to 2.66 µM) | < 1 |  | < 10 | 1 to 2 (≈ 1.33 to 2.66 µM) |  | 1 to 2 (≈ 1.33 to 2.66 µM) | 1 to 2 (≈ 1.33 to 2.66 µM) |
| CS(=O)(=O)NC(C(=O)N[C@H]1Cc2cccc(C(=O)O)c2OB1O)c1ccc(P(=O)(O)O)cc1 (stereo partly drawn) [Example 59, (3R)-2-hydroxy-3-(2-(methylsulfonamido)-2-(4-phosphonophenyl)acetamido)-3,4-dihydro-2H-benzo[e][1,2]oxaborinine-8-carboxylic acid] | 16 to 32 (≈ 32.1 to 64.2 µM) | 16 to 32 (≈ 32.1 to 64.2 µM) | > 128 |  | 16 to 32 (≈ 32.1 to 64.2 µM) | > 128 | 16 to 32 (≈ 32.1 to 64.2 µM) | 16 to 32 (≈ 32.1 to 64.2 µM) |
| Cn1cccc(C(=O)N[C@H](C(=O)N[C@H]2Cc3cccc(C(=O)O)c3OB2O)c2ccc(P(=O)(O)O)cc2)c1=O (single isomer, unassigned) [Example 181] | 16 to 32 (≈ 28.8 to 57.6 µM) | 1 to 2 (≈ 1.8 to 3.6 µM) | > 128 |  | 16 to 32 (≈ 28.8 to 57.6 µM) | > 128 | 16 to 32 (≈ 28.8 to 57.6 µM) | 16 to 32 (≈ 28.8 to 57.6 µM) |
| O=C(O)c1cccc2c1OB(O)[C@@H](NC(=O)[C@H](NC(=O)[C@@H]1CCCN1)c1ccc(P(=O)(O)O)cc1)C2 [Example 173, (R)-2-hydroxy-3-((R)-2-(4-phosphonophenyl)-2-((S)-pyrrolidine-2-carboxamido)acetamido)-3,4-dihydro-2H-benzo[e][1,2]oxaborinine-8-carboxylic acid] | 16 to 32 (≈ 30.9 to 61.9 µM) | 4 to 8 (≈ 7.73 to 15.5 µM) | > 128 |  | 16 to 32 (≈ 30.9 to 61.9 µM) | > 128 | 16 to 32 (≈ 30.9 to 61.9 µM) | 16 to 32 (≈ 30.9 to 61.9 µM) |
| CN1CCC[C@H]1C(=O)NC(C(=O)N[C@H]1Cc2cccc(C(=O)O)c2OB1O)c1ccc(P(=O)(O)O)cc1 (some centres unmarked) [Example 66] | 16 to 32 (≈ 30.1 to 60.2 µM) | 4 to 8 (≈ 7.53 to 15.1 µM) | > 128 |  | 16 to 32 (≈ 30.1 to 60.2 µM) | > 128 | 16 to 32 (≈ 30.1 to 60.2 µM) | 16 to 32 (≈ 30.1 to 60.2 µM) |
| CC(C)S(=O)(=O)NC(C(=O)N[C@H]1Cc2cccc(C(=O)O)c2OB1O)c1ccc(P(=O)(O)O)cc1 (stereo partly drawn) [Example 60, (3R)-2-hydroxy-3-(2-((1-methylethyl)sulfonamido)-2-(4-phosphonophenyl)acetamido)-3,4-dihydro-2H-benzo[e][1,2]oxaborinine-8-carboxylic acid] | 16 to 32 (≈ 30.4 to 60.8 µM) | 4 to 8 (≈ 7.6 to 15.2 µM) | > 128 |  | 16 to 32 (≈ 30.4 to 60.8 µM) | > 128 | 16 to 32 (≈ 30.4 to 60.8 µM) | 16 to 32 (≈ 30.4 to 60.8 µM) |
| O=C(O)c1cccc2c1OB(O)[C@@H](NC(=O)[C@@H](NC(=O)c1cccn(C(F)F)c1=O)c1ccc(P(=O)(O)O)cc1)C2 (single isomer, unassigned) [Example 190] | 16 to 32 (≈ 27.1 to 54.1 µM) | < 1 | > 128 |  | 4 to 8 (≈ 6.77 to 13.5 µM) | > 128 | 4 to 8 (≈ 6.77 to 13.5 µM) | 4 to 8 (≈ 6.77 to 13.5 µM) |
